{"source": "patent US8357659B2", "about": "“Method of treating pain or itching with APETx2 peptide toxin” (priority 2008, dated 2013)", "key": {"ASIC3": {"molecular_target": "T1, ASIC3 (Rattus norvegicus, UniProt O35240)", "T1 sequence (O35240 1-533)": "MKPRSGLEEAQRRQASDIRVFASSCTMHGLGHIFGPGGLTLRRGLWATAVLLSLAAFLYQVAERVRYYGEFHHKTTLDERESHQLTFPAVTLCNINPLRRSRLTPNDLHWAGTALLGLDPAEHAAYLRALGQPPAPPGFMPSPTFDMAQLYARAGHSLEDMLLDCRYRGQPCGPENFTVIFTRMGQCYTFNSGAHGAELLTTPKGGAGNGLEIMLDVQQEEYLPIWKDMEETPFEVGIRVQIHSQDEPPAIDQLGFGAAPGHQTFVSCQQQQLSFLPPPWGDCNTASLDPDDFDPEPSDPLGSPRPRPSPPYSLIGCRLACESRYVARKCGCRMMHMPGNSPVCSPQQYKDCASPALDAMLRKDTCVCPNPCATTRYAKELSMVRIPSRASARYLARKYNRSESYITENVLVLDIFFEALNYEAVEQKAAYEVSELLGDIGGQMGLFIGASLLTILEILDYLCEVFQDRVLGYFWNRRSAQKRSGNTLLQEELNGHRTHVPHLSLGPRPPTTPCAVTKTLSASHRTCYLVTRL", "settings": "cited from earlier work"}, "[1]": {"system": "cutaneous pain induced by moderate acidification", "experiment": "Nociceptive behaviour in rats after subcutaneous injection of moderately acidic solutions", "assay_type": "in vivo, rat", "settings": "FIG. 5A", "experimental": "Adult (7-8 weeks' old) male Wistar rats (Charles River, France) were placed in plastic cages with a nyctohemeral period of 12 h (with light between 8 a.m. and 8 p.m.) and with free access to food and water. The rats were left to acclimatize for at least one week before the experiments. For the behavioural experiments, the rats were placed in a transparent observation chamber where they were acclimatized for 20-30 minutes. They were subsequently immobilised while 20 μl of saline solution (0.9% or 2% of NaCl+20 mM of HEPES, […] or 60 nM of PcTx1 toxin), was administered subcutaneously to the dorsal side of the right hind paw using a 30G needle connected to a 100 μl Hamilton syringe. The nociceptive behaviour (i.e. the number of hind leg quiverings) was recorded over a 5-minute period, starting immediately after the injection ([ref. 59])."}, "heteromer ASIC1b+3": {"molecular_target": "T2, heteromer ASIC1b+3 (Rattus norvegicus, UniProt O35240+P55926)", "T2 sequence (P55926 1-559 isoform P55926-3)": "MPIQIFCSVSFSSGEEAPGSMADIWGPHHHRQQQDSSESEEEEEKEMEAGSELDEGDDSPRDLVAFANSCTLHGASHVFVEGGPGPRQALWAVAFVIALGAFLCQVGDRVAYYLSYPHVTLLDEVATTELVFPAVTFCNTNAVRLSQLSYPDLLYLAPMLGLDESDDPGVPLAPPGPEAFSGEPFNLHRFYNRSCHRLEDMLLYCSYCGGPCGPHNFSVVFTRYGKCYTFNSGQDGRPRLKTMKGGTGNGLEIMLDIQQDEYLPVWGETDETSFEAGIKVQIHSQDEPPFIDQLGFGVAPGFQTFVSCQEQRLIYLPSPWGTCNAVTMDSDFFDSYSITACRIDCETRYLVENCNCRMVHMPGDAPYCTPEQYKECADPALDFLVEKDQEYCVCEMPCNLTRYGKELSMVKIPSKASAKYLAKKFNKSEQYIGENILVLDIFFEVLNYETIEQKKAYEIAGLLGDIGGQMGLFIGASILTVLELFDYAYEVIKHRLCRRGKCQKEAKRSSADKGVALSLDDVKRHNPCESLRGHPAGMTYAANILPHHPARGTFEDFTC", "T2 sequence (O35240 1-533)": "T1 sequence (O35240 1-533)", "settings": "relative to ASIC3 / ASIC2b+3; cited from earlier work"}, "ASIC1b": {"molecular_target": "T3, ASIC1b (Rattus norvegicus, UniProt P55926)", "T3 sequence (P55926 1-559 isoform P55926-3)": "T2 sequence (P55926 1-559 isoform P55926-3)", "settings": "cited from earlier work"}, "ASIC2a": {"molecular_target": "T4, ASIC2a (Rattus norvegicus, UniProt Q62962)", "T4 sequence (Q62962 1-512)": "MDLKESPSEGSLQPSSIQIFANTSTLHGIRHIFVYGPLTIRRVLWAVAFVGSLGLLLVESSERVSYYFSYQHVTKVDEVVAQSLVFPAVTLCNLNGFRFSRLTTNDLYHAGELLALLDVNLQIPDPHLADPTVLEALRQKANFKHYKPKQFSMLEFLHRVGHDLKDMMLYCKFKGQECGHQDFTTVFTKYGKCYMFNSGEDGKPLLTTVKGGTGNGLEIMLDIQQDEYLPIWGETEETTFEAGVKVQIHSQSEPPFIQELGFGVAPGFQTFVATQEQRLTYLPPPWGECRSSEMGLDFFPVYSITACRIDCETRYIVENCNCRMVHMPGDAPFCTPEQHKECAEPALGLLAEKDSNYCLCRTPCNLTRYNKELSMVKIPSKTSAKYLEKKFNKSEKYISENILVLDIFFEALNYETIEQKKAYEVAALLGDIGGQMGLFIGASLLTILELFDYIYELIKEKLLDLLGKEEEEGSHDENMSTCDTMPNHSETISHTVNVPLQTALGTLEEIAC", "settings": "cited from earlier work"}}, "data": [{"substance": "peptide of 42 amino acids (SEQ ID NO: 3), three disulphide bonds, from sea anemone Anthopleura elegantissima; blocks ASIC3 [APETx2]", "values": [{"measurement": "effect on the ASIC3 sustained current", "setting": "ASIC3; sustained current", "value": "without affecting"}, {"measurement": "IC50", "setting": "ASIC3; transient current, reversible block, read-out: IC50 for inhibition of the ASIC3 transient current", "value": 63, "unit": "nM"}, {"measurement": "behaviour in response to acid pain with inflammatory signals", "setting": "[1]; pH 6.9 + 2% NaCl + AA, 10 μM APETx2 or 60 nM PcTx1 in injected solution", "value": "markedly reduced"}, {"measurement": "pain behaviour after subcutaneous injection of acidic solution", "setting": "[1]; pH 6.9, 10 μM APETx2 in injected solution", "value": "suppressed"}, {"measurement": "affinity for the heteromer ASIC1b+3", "setting": "heteromer ASIC1b+3", "value": "less affinity"}, {"measurement": "effect on ASIC1b isoform", "setting": "ASIC1b", "value": "does not have any effect"}, {"measurement": "effect on ASIC2a isoform", "setting": "ASIC2a", "value": "does not have any effect"}]}]}
